US20210221834A1, “SWEETENER AND SWEETENED COMPOSITIONS INCORPORATING REBAUDOSIDE N” (CARGILL, INCORPORATED, priority 2013, published 2021)
Entries after “also recorded” stand apart in the source; their conditions may differ.

Experiments:
Type in all cases: in vivo, human
[1] = Sensory evaluation of three-way blends of reb A, reb B and reb N in water (Example 3); conditions: 500 ppm (wt/wt) in water, room temperature
Protocol: Solutions containing 500 ppm (wt/wt) of blends of reb A, reb B, and reb N in water were prepared and evaluated at room temperature by five scientists with training and experience in the sensory evaluation of steviol glycosides. The samples were evaluated for sweetness intensity and other qualitative attributes and compared against Reb A. The results are shown in the following table: […]

[2] = Sensory evaluation in citric/citrate buffer at pH 3.2 (Example 4); design: key to Bitterness intensity: 0=none; 1=trace; 2=faint; 3=slight; 4=mild; 5=moderate; 6=definite; 7=strong; 8=very strong; 9=extreme
Protocol: Method: Solutions containing 600 ppm (wt/wt) Reb A or blends of Reb A, Reb B and Reb N in citric/citrate buffer at pH 3.2 were prepared and evaluated at room temperature by three scientists with training and experience in the sensory evaluation of steviol glycosides. The samples were evaluated for sweetness intensity and other qualitative attributes.

[3] = Sensory evaluation of 4-way blend in deionized water (Example 5); design: key to Bitterness / Licorice note: 0=none; 1=trace; 2=faint; 3=slight; 4=mild; 5=moderate; 6=definite; 7=strong; 8=very strong; 9=extreme; conditions: 500 ppm in deionized water
Protocol: Method: Solutions containing 500 ppm Reb A or blends of RebA, RebB, RebD and RebN were prepared in deionized water and evaluated at room temperature by three scientists with training and experience in the sensory evaluation of steviol glycosides. The samples were evaluated for sweetness intensity and other qualitative attributes.

[4] = Sensory evaluation of Reb A, Reb D and Reb N solutions in water (Example 2); design: key to Bitterness: 1 = none; 2 = trace; 3 = faint; 4 = mild; 5 = moderate; 6 = definite; 7 = strong; 8 = very strong; 9 = extreme; conditions: 500 ppm (wt/wt) in water, room temperature; for Sweetness Intensity (percent sucrose equivalent sweetness): two scientists, sucrose standards 6%, 7%, 8%; for Bitterness: intensity scale 1-9
Protocol: Solutions containing 500 ppm (wt/wt) of RebA, RebD and RebN, respectively, in water were prepared and evaluated at room temperature by two scientists with training and experience in the sensory evaluation of steviol glycosides. The samples were evaluated for sweetness intensity and other qualitative attributes. A set of sucrose standards were prepared by dissolving sugar into room temperature water (6%, 7%, 8% by weight) and used as references for sweetness intensity.

[5] = 600 ppm (wt/wt) in citric/citrate buffer pH 3.2

| Compound | Sweetness intensity rated by the judges [1] | Bitter ([1]; five scientists) | Linger ([1]; five scientists) | Sweet (quality) ([1]; five scientists) | Sweet onset ([1]; five scientists) | Bitter onset [2, 5] | Licorice [2, 5] | Lingering bitterness [2, 5] | Sweet profile [2, 5] | Sucrose equivalent sweetness ([2]; 600 ppm (wt/wt) in citric/citrate buffer pH 3.2, room temperature, three scientists) [%] | Bitterness intensity ([2]; 600 ppm (wt/wt) in citric/citrate buffer pH 3.2, intensity scale 0-9) | Lingering bitter aftertaste [3] | Sucrose equivalent sweetness ([3]; room temperature, three scientists) [%] | Bitterness ([3]; intensity scale 0-9) | Licorice note ([3]; intensity scale 0-9) | Other Sweetness Quality [4] | Sweetness Linger [4] | Sweetness Onset [4] | Sweetness Intensity (percent sucrose equivalent sweetness) [4] [% SE] | Bitterness [4] |
| --- | --- | --- | --- | --- | --- | --- | --- | --- | --- | --- | --- | --- | --- | --- | --- | --- | --- | --- | --- | --- |
| C=C1C[C@@]23CC[C@H]4[C@@](C)(CCC[C@@]4(C)C(=O)O[C@@H]4O[C@H](CO)[C@@H](O)[C@H](O)[C@H]4O)[C@@H]2CC[C@]1(O[C@@H]1O[C@H](CO)[C@@H](O)[C@H](O[C@@H]2O[C@H](CO)[C@@H](O)[C@H](O)[C@H]2O)[C@H]1O[C@@H]1O[C@H](CO)[C@@H](O)[C@H](O)[C@H]1O)C3 [Reb A, Rebaudioside A] | 6.0 | moderate | moderate | poor | slow | extremely rapid | slight | strong | peaky | 7 | 7 | moderate | 6 | 6 | 3 | spikey; also recorded: worst | moderate | slow | 6 | 5 |
| C=C1C[C@@]23CC[C@H]4[C@@](C)(CCC[C@@]4(C)C(=O)O[C@@H]4O[C@H](CO)[C@@H](O)[C@H](O)[C@H]4O[C@@H]4O[C@H](CO)[C@@H](O)[C@H](O)[C@H]4O)[C@@H]2CC[C@]1(O[C@@H]1O[C@H](CO)[C@@H](O)[C@H](O[C@@H]2O[C@H](CO)[C@@H](O)[C@H](O)[C@H]2O)[C@H]1O[C@@H]1O[C@H](CO)[C@@H](O)[C@H](O)[C@H]1O)C3 [Reb D, Rebaudioside D] | – | – | – | – | – | – | – | – | – | – | – | – | – | – | – | rounded, and syrupy and best | slight | quick | 7 | 2 |
| C=C1C[C@@]23CC[C@H]4[C@@](C)(CCC[C@@]4(C)C(=O)O[C@@H]4O[C@H](CO)[C@@H](O)[C@H](O[C@@H]5O[C@H](CO)[C@@H](O)[C@H](O)[C@H]5O)[C@H]4O[C@@H]4O[C@@H](C)[C@H](O)[C@@H](O)[C@H]4O)[C@@H]2CC[C@]1(O[C@@H]1O[C@H](CO)[C@@H](O)[C@H](O[C@@H]2O[C@H](CO)[C@@H](O)[C@H](O)[C@H]2O)[C@H]1O[C@@H]1O[C@H](CO)[C@@H](O)[C@H](O)[C@H]1O)C3 [Reb N] | – | – | – | – | – | – | – | – | – | – | – | – | – | – | – | rounded, and syrupy, and best | moderate | quick | 7.5 | 1 |
